In ChEMBL document CHEMBL5661955, “ASAP - In vitro cytotoxicity” (2024):
Several values for one entry are separate records, joined by “and”; a condition that tells them apart may be missing. Equal entries are not always repeated.

Experiments:
[1] = Functional assay to measure dose dependent changes in cell viability from drug treatment in Vero E6 miRFP670 cells (cotreated with P-gp inhibitor, CP100356) that are infected with Dengue virus type 2 New Guinea C. […] Cytotoxicity is reported via via analysis of DAPI count using high-content imager. The assay has been performed by KU Leuven.; format: toxicity, cell-based, Vero C1008; conditions: chlorocebus sabaeus
[2] = (§1) Functional CPE-based assay to measure dose dependent changes in cell viability from drug treatment in Huh-7 cells. Cells are treated with antiviral candidates that have been serially diluted. Cytotoxicity is reported via analysis of MTT/ MTS assays in uninfected cells. The assay has been performed by National Institute of Allergy and Infectious Diseases.; format: toxicity; conditions: human
[3] = Functional metabolic assay to measure dose dependent changes in cell viability from drug treatment in Vero E6/TMPRSS2 cells (cotreated with P-gp inhibitor, Elacridar). […] Cytotoxicity is reported via measuring absorbance and analysis of MTT/MTS assays in uninfected cells. The assay has been performed by Icahn School of Medicine at Mount Sinai.; format: toxicity, cell-based, VeroE6/TMPRSS2; conditions: chlorocebus sabaeus, p-gp concentration 2 uM
[4] = Functional metabolic assay to measure dose dependent changes in cell viability from drug treatment in Vero E6/TMPRSS2 cells. Cells are treated with antiviral candidates that have been serially diluted. Cytotoxicity is reported via measuring absorbance and analysis of MTT/MTS assays in uninfected cells. The assay has been performed by Icahn School of Medicine at Mount Sinai.; format: toxicity, cell-based, VeroE6/TMPRSS2; conditions: chlorocebus sabaeus; for CC50: Vero E6/TMPRSS2 cells; for CC10: veroe6/tmprss2
[5] = as §1, with “Vero E6 miRFP670” for “Huh-7”, “of” for “of MTT/”, “KU Leuven.” for “National Institute of Allergy and Infectious Diseases.”; format: toxicity, Vero C1008; conditions: chlorocebus sabaeus
[6] = as §1, with “Vero E6 miRFP670 cells (cotreated with P-gp inhibitor, CP100356).” for “Huh-7 cells.”, “of” for “of MTT/”, “KU Leuven.” for “National Institute of Allergy and Infectious Diseases.”; format: toxicity, Vero C1008; conditions: chlorocebus sabaeus, Vero E6 miRFP670 cells, with CP100356 (P-gp inhibitor, concentration not stated); p-gp concentration 100 nM
[7] = Functional assay to measure dose dependent changes in cell viability from drug treatment in Vero E6 miRFP670 cells that are infected with Dengue virus type 2 New Guinea C. Cells are treated with antiviral candidates that have been serially diluted. Cytotoxicity is reported via via analysis of DAPI count using high-content imager. The assay has been performed by KU Leuven.; format: toxicity, cell-based, Vero C1008; conditions: chlorocebus sabaeus
[8] = with CP100356 (P-gp inhibitor, concentration not stated), p-gp concentration 500 nM
[9] = Vero E6/TMPRSS2 cells, with Elacridar (P-gp inhibitor, concentration not stated)

Structure (SMILES): CCCCCC(=O)N[C@H](C(=O)NCc1cccc(CN)c1)c1ccc(OCc2ccccc2)cc1
- CC50 [1, 8]: 2.32 µM
- CC50 [2]: 18 µM

Structure (SMILES): CCCCCC(=O)N[C@H](C(=O)Nc1ccc2[nH]ncc2c1)c1ccc(OCc2ccccc2)cc1
- CC50 [1, 8]: > 10 µM
- CC50 [2]: 32 µM

Structure (SMILES): CCCCCC(=O)N[C@H](C(=O)Nc1ccc(C(N)=O)cc1)c1ccc(OCc2ccccc2)cc1
- CC50 [1, 8]: > 10 µM
- CC50 [2]: 32 µM

Structure (SMILES): NCc1ccc(-c2ncc(OCC3CCNCC3)nc2-c2ccc(-c3ccoc3)cc2)cc1
- CC50 [1, 8]: 1.7 µM
- CC50 [3, 9]: 49.9 µM
- CC10 ([3]; veroe6/tmprss2): 39.762 µM
- CC50 [4]: > 50 µM
- CC10 [4]: > 50 µM
- CC50 [2]: 5.5 µM

Structure (SMILES): CCCC[C@H](NC(C)=O)C(=O)N[C@H](C(=O)NCc1ccc(C(N)=O)cc1)c1ccc(OCc2ccccc2)cc1
- CC50 [1, 8]: > 10 µM
- CC50 [3, 9]: > 50 µM
- CC10 ([3]; veroe6/tmprss2): > 50 µM
- CC50 [2]: 15 µM

Structure (SMILES): NCc1ccc(-c2ncc(OCC3CCNCC3)nc2-c2ccc(C3CCOCC3)cc2)cc1
- CC50 [1, 8]: > 10 µM
- CC50 [2]: 32 µM

Structure (SMILES): CCCCCC(=O)N[C@H](C(=O)N1CCCCC1)c1ccc(OCc2ccccc2)cc1
- CC50 [1, 8]: > 10 µM
- CC50 [2]: 19 µM

Structure (SMILES): O=C(Nc1ccc2c(c1)B(O)OC2)c1cccc(OCc2c(Cl)cccc2Cl)c1
- CC50 [1, 8]: > 10 µM
- CC50 [4]: > 50 µM
- CC10 [4]: > 50 µM
- CC50 [2]: 1.9 µM

Structure (SMILES): CC1(C)Cc2sc(NC(=O)Cc3ccc(S(N)(=O)=O)cc3)c(C#N)c2CN1CC1CCCCC1
- CC50 ([5]; Vero E6 miRFP670 cells): > 50 µM
- CC50 [2]: 16 µM

Structure (SMILES): O=C(Nc1cc(Cl)cc(C(=O)Nc2ccc3c(c2)CNC3)c1)OCc1ccccc1
- CC50 [1, 8]: 12.1 µM
- CC50 ([3]; veroe6/tmprss2): > 10 µM and 25.1 µM
- CC50 ([5]; Vero E6 miRFP670 cells): 9.29 µM
- CC50 [4]: 16.6 µM
- CC10 [4]: 19.011 µM

Structure (SMILES): NCCCc1cccc(NC(=O)c2cc(Cl)cc(NC(=O)OCc3ccccc3)c2)n1
- CC50 [3, 9]: 14.9 µM
- CC10 ([3]; veroe6/tmprss2): 0.527 µM
- CC50 ([5]; Vero E6 miRFP670 cells): 4.43 µM
- CC50 [4]: 6.18 µM
- CC10 [4]: 6.788 µM

Structure (SMILES): O=C(Nc1ccc2c(c1)CNC2)c1cc(Cl)cc2[nH]ncc12
- CC50 ([1]; vero c1008, p-gp concentration 100 nM): 5.47 µM
- CC50 [3, 9]: < 0.023 µM
- CC10 ([3]; veroe6/tmprss2): > 50 µM
- CC50 ([5]; Vero E6 miRFP670 cells): 49.7 µM
- CC50 ([5]; vero c1008): > 50 µM
- CC50 [6]: > 50 µM
- CC50 [7]: 6.72 µM

Structure (SMILES): NCc1cccc(NC(=O)C[C@@H](NC(=O)OCc2ccccc2)c2ccc(OCc3ccccc3)cc2)c1
- CC50 [1, 8]: > 10 µM
- CC50 [2]: 6.1 µM

Structure (SMILES): NCc1cccc(NC(=O)[C@@H](NC(=O)OCc2ccccc2)c2ccc(OCc3ccccc3)cc2)c1
- CC50 [1, 8]: 5.95 µM
- CC50 [2]: 18 µM

Structure (SMILES): COc1cc(Cc2c(-c3ccc(F)cc3)noc2C)nc(N2CCNCC2)n1
- CC50 [1, 8]: > 10 µM
- CC50 [2]: 18 µM

Structure (SMILES): Cc1cc(CN)cc(NC(=O)c2cc(Cl)cc(NC(=O)OCc3ccccc3)c2)c1
- CC50 [3, 9]: > 10 µM
- CC50 ([3]; veroe6/tmprss2): 16.6 µM
- CC50 [4]: 7.97 µM
- CC10 [4]: 8.014 µM

Structure (SMILES): O=C(O)c1cc(Oc2ccc(F)cc2)c(F)cc1NS(=O)(=O)c1ccc(Oc2ccccc2Cl)cc1
- CC50 [1, 8]: 5.31 µM
- CC50 [3, 9]: > 50 µM
- CC50 ([3]; veroe6/tmprss2): 44 µM
- CC50 [2]: 20 µM

Structure (SMILES): c1ccc2sc(C3CCN(Cc4c[nH]c5ccccc45)CC3)nc2c1
- CC50 [1, 8]: 5.31 µM
- CC50 [3, 9]: 49.2 µM
- CC50 ([3]; veroe6/tmprss2): > 50 µM
- CC50 [2]: 18 µM
